Measured values: patent US20010007907A1, “3-EPI COMPOUNDS OF VITAMIN D3 AND USES THEREOF” (WOMEN AND INFANTS HOSPITAL, priority 1997, published 2001)
Where two headings read alike, the source gives them in different places. Each block holds one compound with its values, some of them ahead of it.

Assays:
[1] = system: keratinocytes; assay: Keratinocyte growth inhibition (cell number per well); assay type: cell-based, human; conditions: for inhibition of keratinocyte growth: result in words; for potency at inhibiting growth of keratinocytes compared with 1α,25(OH)2-3-epi-D3: data not shown
Method: To address the effect of 3-epi vitamin D3 compounds on keratinocyte growth, keratinocyte cultures were established at 25.000 cells/per well on day 0 in KGM. […] The cells were allowed to grow for 4 more days with one refeeding on day 3. Number of cells per well was determined on day 4.

[2] = system: human keratinocytes; assay: Metabolism in human keratinocytes (incubation, lipid extraction, HPLC); assay type: in vitro ADME
Method: Keratinocytes were prepared as described previously (Kim H. […] First passage keratinocytes were seeded at 0.5×10^6 into […] flasks in keratinocytes growth media (KGM, Clonetics, Inc.). The cells were fed every 2-3 days. The cells were 70-80% confluent usually after 5 days. […] At the end of 24 hr incubation period in a 37° C., 5% CO2 incubator, an equal volume of methanol was added to the cultures. The cells were then scraped from the flasks and all of the media and the cells were pooled and lipid extraction was performed from both cells and media using the Bligh and Dyer technique. […] Zorbax-SIL column eluted with 6% isopropanol in hexane at a flow rate of 2 ml/min. […] Resulting lipid extracts were analyzed using the following HPLC conditions: Zorbax-SIL column eluted with 9% isopropanol in hexane at a flow rate of 2 ml/min. […] Lipid extracts of different time points were analyzed by straight phase HPLC. […] This metabolite peak appeared at 1 hr. incubation period and increased to its maximum by 3 hr.

[3] = target: T1, plasma vitamin D binding protein (DBP) (Homo sapiens, UniProt P02774); conditions: relative competitive index; RCI of 1α,25(OH)2D3 is by definition 100; cited from earlier work
T1 sequence (P02774 17-474): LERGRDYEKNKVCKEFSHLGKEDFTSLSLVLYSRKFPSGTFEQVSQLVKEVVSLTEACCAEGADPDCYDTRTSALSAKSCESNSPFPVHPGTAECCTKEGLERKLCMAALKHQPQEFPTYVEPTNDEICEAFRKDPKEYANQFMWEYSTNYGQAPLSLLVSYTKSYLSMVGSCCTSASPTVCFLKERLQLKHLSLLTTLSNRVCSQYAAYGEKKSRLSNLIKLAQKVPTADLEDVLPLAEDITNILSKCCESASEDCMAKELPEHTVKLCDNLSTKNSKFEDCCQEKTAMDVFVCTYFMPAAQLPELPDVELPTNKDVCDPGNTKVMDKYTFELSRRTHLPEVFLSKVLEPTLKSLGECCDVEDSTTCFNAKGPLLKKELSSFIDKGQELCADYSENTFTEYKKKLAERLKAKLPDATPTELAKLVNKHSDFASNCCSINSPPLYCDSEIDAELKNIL

[4] = system: bovine parathyroid cells; assay: Inhibition of PTH secretion in bovine parathyroid cells; assay type: cell-based; conditions: result in words
Method: To determine the effect of 3-epi vitamin D3 compounds on parathyroid hormone secretion, bovine parathyroid cells were prepared as described in the metabolism studies. These cells were grown for four days in serum-free media. […] Steady state PTH seretion was determined by washing the cells 3 times with Dulbecco's PBS and then placing them in serum free media for 3 hours. The media was collected, centrifuged at 4° C. and analyzed from PTH using CH9 antibody as described previously (Brown A. J. et al. (1992) Endocrinology 130:276-281). The cell monolayers were dissolved in 0.1 N NaOH and assayed for protein by method of Bradford using a kit from Biorad Laboratories. PTH secretion is expressed as picograms PTH per milligram cell protein (FIG. 20, panel B).

[5] = system: MG-63; conditions: relative to 1α,25(OH)2D3 = 100; cited from earlier work
[6] = target: T1, plasma vitamin D binding protein (DBP); assay: Competitive ligand binding to plasma vitamin D binding protein (RCI); conditions: fold over 1α,25(OH)2D3
From the text: The elevated levels of 3-epi binding indicate that 3-epi forms bind to DBP more avidly than their isomeric counterparts. Such enhanced binding may in turn enhance the stability of 3-epi forms in the plasma, and thus may explain the prolonged presence of 3-epi metabolites in vivo.
Ligand binding assays are well known in the art. […] Such plots give linear curves characteristic for each test analog, the slopes of which are equal to the analog's competitive index (Wecksler, W. R. and Norman, A. W. (1980) Methods of Enzymol. 67:494-500).

[7] = system: intestinal calcium transport; conditions: relative to 1α,25(OH)2D3 = 100; cited from earlier work
[8] = system: bone calcium mobilization; conditions: relative to 1α,25(OH)2D3 = 100; cited from earlier work
[9] = system: intestinal calcium mobilization; conditions: cited from earlier work
[10] = system: rat osteosarcoma cell line UMR 106
Method: (§1) In order to address whether vitamin D3 analogs can be converted to 3-epi forms, a number of analogs were tested in bone cells under identical experimental conditions as described in Example IX.

[11] = system: Caco-2 cells; assay: Metabolism of synthetic analogs in Caco-2 cells (HPLC); assay type: in vitro ADME, human; conditions: for metabolites detected in subconfluent cells: Caco-2, 6 days after seeding; for metabolites detected in subconfluent cells / metabolites detected in confluent cells: 1 μM, 48 hours; for metabolites detected in confluent cells: Caco-2, 14 days after seeding
Method: To address whether the epimerization of vitamin D3 analogs occurs in other tissues, the intestinal cell line Caco-2 was used as a model system to investigate the metabolism of two synthetic analogs of 1,25(OH)2D3 in intestinal epithelial cells. Subconfluent (6 days after seeding) and confluent (14 days after seeding) cells were incubated with 1 μM 1,25(OH)2-16-ene-D3 or 1,25(OH)2-16-ene-23-yne-D3, respectively, for 48 hours.

[12] = system: human leukemic cells; assay: Proliferation and differentiation of human leukemic cells; assay type: cell-based; conditions: data not shown
[13] = system: keratinocytes; conditions: J. Invest. Dermatol. 101:713-718, 1993; cited from earlier work
[14] = system: HACAT cells; assay: Metabolism of 1α,25(OH)2D3 in immortalized human keratinocytes (HACAT); assay type: in vitro ADME; conditions: 24 hr, 1uM 1α,25(OH)2D3
From the text: Primary cultures of human keratinocytes were used as a control (FIG. 12, panel A). The other three tissues tested included a cell line of immortalized human keratinocytes ([…] commonly studied cancer cell line (human promyelocytic leukemic cell line, HL-60) (FIG. 12, panel C), and perfused rat kidney (FIG. 12, Panel D). […] The experiments certainly establish the fact that the 3-epimerization is not ubiquitous, like the side chain oxidation pathways.

[15] = system: bovine parathyroid cells; assay: Metabolism in bovine parathyroid cells (HPLC); assay type: in vitro ADME; conditions: 1 uM, 24 hours
Method: Bovine parathyroid glands obtained from a local slaughterhouse were digested with collagenase and the cells were cultured as previously described (Brown A. J. et al. (1992) Endocrinology 130:276-281), and seeded at a density of 80,000 cells/cm^2. Cells were grown to confluence in six days in serum free medium. […]. Incubations were terminated with methanol, and the samples were sent to our laboratory for HPLC analysis. The lipid extract was analyzed using the straight phase HPLC system (Zorbax-SIL column eluted with 6% isopropanol inhexane at 2 ml/min flow rate). […]

[16] = system: human osteosarcoma cell (U-2 OS); assay: Metabolism of 1α,25(OH)2D3 in human osteosarcoma cell (U-2 OS); assay type: in vitro ADME; conditions: 3×10^7 and 12×10^7 cells
Method: HPLC profiles were determined at two different cell densities, 3×10^7 cells and 12×10^7 as shown in the upper and lower panels of the Figure, respectively.

[17] = system: rat osteosarcoma cell line UMR 106; assay: Metabolism in rat osteosarcoma cell line UMR 106 (HPLC); conditions: UMR 106, 1α,25(OH)2D3, 24 and 48 hours
Method: as §1

[18] = system: human placental explants; conditions: 1 uM 1α,25(OH)2D3
[19] = target: T2, vitamin D3 nuclear receptors (VD3R) (Rattus norvegicus, UniProt P13053); assay: Osteocalcin VDRE reporter gene transcription assay in transfected ROS-17/2.8 cells
T2 sequence (P13053 1-423): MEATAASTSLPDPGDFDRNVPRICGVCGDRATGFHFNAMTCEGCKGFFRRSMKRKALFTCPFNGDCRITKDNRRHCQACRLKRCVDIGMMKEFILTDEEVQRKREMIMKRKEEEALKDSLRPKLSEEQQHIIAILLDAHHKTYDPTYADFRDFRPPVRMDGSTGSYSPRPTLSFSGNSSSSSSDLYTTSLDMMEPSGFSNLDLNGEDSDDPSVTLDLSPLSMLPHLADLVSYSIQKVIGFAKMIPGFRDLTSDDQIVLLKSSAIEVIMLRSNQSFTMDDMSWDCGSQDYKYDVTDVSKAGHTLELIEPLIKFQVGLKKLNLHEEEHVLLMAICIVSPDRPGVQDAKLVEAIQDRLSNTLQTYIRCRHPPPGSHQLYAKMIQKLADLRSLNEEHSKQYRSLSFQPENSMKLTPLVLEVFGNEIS

Structure (SMILES): C=C1/C(=C\C=C2/CCC[C@]3(C)C([C@H](C)CC#CC(C)(C)O)=CC[C@@H]23)C[C@@H](O)C[C@@H]1O [1α,25(OH)2-16-ene-23-yne-D3]
metabolites detected in subconfluent cells [11]: no metabolites could be detected
metabolites detected in confluent cells [11]: 3-epi forms
rate of metabolism compared with 1,25(OH)2D3 or 1,25(OH)2-16-ene-D3 ([11]; Caco-2, all growth conditions, data not shown): metabolized considerably slower
conversion of vitamin D3 analog into less polar 3-epi metabolite [10]: 3-epi forms

Structure (SMILES): C=C1/C(=C\C=C2/CCC[C@]3(C)C([C@H](C)CCC(=O)C(C)(C)O)=CC[C@@H]23)C[C@@H](O)C[C@@H]1O [1α,25(OH)2-16-ene-24-oxo-D3]
potency at inhibiting growth of keratinocytes compared with 1α,25(OH)2-3-epi-D3 [1]: more potent than 1α,25(OH)2-3-epi-D3
inhibition of keratinocyte growth [1]: equally potent
accumulation of metabolite relative to remaining unmetabolized substrate ([2]; human): exceeded the amounts of remaining unmetabolized substrate
modulating proliferating and differentiation of human leukemic cells, compared with parent compound [12]: equipotent effect as its parent compound

Structure (SMILES): C=C1/C(=C\C=C2/CCC[C@]3(C)C([C@H](C)CCCC(C)(C)O)=CCC23)C[C@@H](O)C[C@@H]1O (stereo partly drawn) [1α,25(OH)2-16-ene-D3]
potency at inhibiting growth of keratinocytes compared with 1α,25(OH)2-3-epi-D3 [1]: more potent than 1α,25(OH)2-3-epi-D3
inhibition of keratinocyte growth [1]: equally potent
metabolites detected in subconfluent cells [11]: 1,24,25(OH)3-16-ene-D3 and 1,25 (OH)2-24-oxo-16-ene-D3
metabolites detected in confluent cells [11]: 3-epi form of 1,25(OH)2-16-ene-D3
inhibiting proliferation and inducing differentiation of keratinocytes [13]: most potent of the analogs tested

Structure (SMILES): C=C1/C(=C\C=C2/CCC[C@@]3(C)C2CCC3C(C)CCCC(C)(C)O)CC(O)C[C@@H]1O (stereo partly drawn) [1α,25(OH)2D3]
formation of 1α,25(OH)2-3-epi-D3 (peak M) [14]: is formed in keratinocytes and the HACAT cells
conversion into 1α,25(OH)2-3-epi-D3 [15]: have the ability to convert
incubation time at which the tritiated metabolite reaches its maximum ([2]; human keratinocytes from adult breast skin incubated with tritiated 25(OH)D3, physiological substrate concentration): 1 to 2 h
formation of 1α,25(OH)2-3-epi-D3 (peak M) ([2]; primary human keratinocytes, 24 hr, 1uM 1α,25(OH)2D3): is formed in keratinocytes and the HACAT cells
conversion into 3-epi form [16]: directly proportional to the concentration of cells
formation of 1α,25(OH)2-3-epi-D3 [17]: dose dependent
Osteocalcin Synthesis MG-63 [5]: 100
epimerization of the 3-hydroxy group [18]: unable to epimerize
Intestinal Calcium Transport [7]: 100
Bone Calcium Mobilization [8]: 100
Transcaltachia ([9]; relative to 1α,25(OH)2D3 = 100): 100

Structure (SMILES): C=C1C(=CC=C2CCCC3(C)C(C(C)CC#CC(C)(C)O)=CCC23)CC(O)CC1O (stereo not drawn) [3-epi-1,25-dihydroxy-16-ene-25-yne-cholecalciferol]
transcriptional activation in relation to isomeric counterpart [19]: slightly decreased
transcriptional activity compared with 1α,25(OH)2D3 [19]: as active as 1α,25(OH)2D3
induction of VD3R transcriptional activity ([19]; osteocalcin VDRE reporter): dose dependent manner

More lines, main results first:

incubation time at which the tritiated metabolite reaches its maximum [2]: 3 h
metabolism into more polar metabolites [2]: extensive metabolism
increase in the binding to plasma vitamin D binding protein (DBP) compared to 1α,25(OH)2D3 [6]: eightfold
Structure (SMILES): C=C1C(=CC=C2CCCC3(C)C2CCC3C(C)CCCC(C)(C)O)CC(O)CC1O (stereo not drawn) [1α,25(OH)2-3-epi-D3, 3-epi-1α,25-dihydroxycholecalciferol]
inhibition of keratinocyte growth [1]: significant biological activity
Binding to DBP (RCI) [3]: 800
inhibition of PTH secretion [4]: significant biological activity
Osteocalcin Synthesis MG-63 [5]: 17
Intestinal Calcium Transport [7]: 2.8
Bone Calcium Mobilization [8]: 1.5
Transcaltachia ([9]; relative to 1α,25(OH)2D3): 80%
Transcaltachia ([9]; relative to 1α,25(OH)2D3 = 100): 80

conversion of vitamin D3 analog into less polar 3-epi metabolite [10]: 3-epi form
Structure (SMILES): C=C1/C(=C\C=C2/CCC[C@]3(C)C([C@@H](C)CCCC(C)(C)O)=CCC23)C[C@@H](O)C[C@@H]1O (stereo partly drawn) [1α,25(OH)2-16-ene-20-epi-D3]

conversion of vitamin D3 analog into less polar 3-epi metabolite [10]: 3-epi form
Structure (SMILES): C=C1C(=CC=C2CCCC3(C)C2CCC3C(C)CCCC(C)(C)O)CC(O)CC1O (stereo not drawn) [1α,25(OH)2-20-epi-D3]
